Measured values reported in patent US20220389061A1, “IMMUNOMODULATORS” (priority 2019, published 2022).
pIC50: −log10 of the molar value. Positions of bridges follow the written chain, without caps; N, C: chain ends. Non-standard residues stand in square brackets, D forms with d. Residues, ends and D or L forms follow the SMILES beside them. *: point of attachment. Trp(1-CH2COOH) = N[C@@H](Cc1cn(CC(=O)O)c2ccccc12)C(=O)O; Hyp = O=C(O)[C@@H]1C[C@@H](O)CN1; X34 = O=C(c1c2ccccc2cc2ccccc12)*; X44 = FC(F)(F)c1ccc(NC(=S)*)cc1; X11 = S=C(Nc1ccccc1-c1ccccc1)*; NMeNle = CCCC[C@H](NC)C(=O)O; X9 = Fc1ccc(NC(=S)*)c(Cl)c1; NMeA = CN[C@@H](C)C(=O)O; Dab = NCC[C@H](N)C(=O)O; Dap = NC[C@H](N)C(=O)O; X21 = S=C(Nc1ccccn1)*

Target: T1, PD-1/PD-L1 (Homo sapiens, UniProt Q9NZQ7)
T1 construct: TVMV protease site linker (C); made in house; host or cells: HEK293T cells
Test: PD-1/PD-L1 Homogenous Time-Resolved Fluorescence (HTRF) binding assay
Conditions: PD-L1-His 10 nM pre-incubated with inhibitor, PD-1-Ig 20 nM; read-out: HTRF IC50
In short: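 Compounds preincubated 15 min with PD-L1-His (10 nM final), then PD-1-Ig (20 nM final) added for 15 min in dPBS with 0.1% BSA, 0.05% Tween-20. Detection by Eu-cryptate anti-Ig (1 nM) and APC anti-His (20 nM) HTRF.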

T1 sequence (Q9NZQ7 18-239): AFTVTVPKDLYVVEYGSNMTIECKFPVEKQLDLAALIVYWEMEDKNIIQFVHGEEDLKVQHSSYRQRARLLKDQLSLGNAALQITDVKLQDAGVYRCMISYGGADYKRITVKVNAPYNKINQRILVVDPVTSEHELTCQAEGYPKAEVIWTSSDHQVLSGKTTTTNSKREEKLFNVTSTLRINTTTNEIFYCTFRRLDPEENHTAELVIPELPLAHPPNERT

| pIC50 | Compound |
| --- | --- |
| 8.38 | CCCC[C@H]1C(=O)N(C)[C@@H](CCCC)C(=O)N[C@@H](CC(C)C)C(=O)N[C@H](C(=O)NCC(N)=O)CSCC(=O)N[C@@H](Cc2ccc(O)cc2)C(=O)N(C)[C@@H](C)C(=O)N[C@@H](CC(N)=O)C(=O)N2CCC[C@H]2C(=O)N[C@@H](CNC(=S)Nc2ccccn2)C(=O)N[C@@H](CC(C)C)C(=O)N2C[C@H](O)C[C@H]2C(=O)N[C@@H](Cc2c[nH]c3ccccc23)C(=O)N[C@@H](CCNC(=S)Nc2ccccn2)C(=O)N[C@@H](Cc2cn(CC(=O)O)c3ccccc23)C(=O)N1C [Example 1021] ({CH2CO}-Y[NMeA]NP[Dap](X21)L[Hyp]W[Dab](X21)[Trp(1-CH2COOH)][NMeNle][NMeNle]LCG-NH2; thioether N-14) |
| 9.22 | CCCC[C@H]1C(=O)N(C)[C@@H](CCCC)C(=O)N[C@@H](CC(C)C)C(=O)N[C@H](C(=O)NCC(N)=O)CSCC(=O)N[C@@H](Cc2ccc(O)cc2)C(=O)N(C)[C@@H](C)C(=O)N[C@@H](CC(N)=O)C(=O)N2CCC[C@H]2C(=O)N[C@@H](CNC(=S)Nc2ccccc2-c2ccccc2)C(=O)N[C@@H](CC(C)C)C(=O)N2C[C@H](O)C[C@H]2C(=O)N[C@@H](Cc2c[nH]c3ccccc23)C(=O)N[C@@H](CCNC(=S)Nc2ccccc2-c2ccccc2)C(=O)N[C@@H](Cc2cn(CC(=O)O)c3ccccc23)C(=O)N1C [Example 1128] ({CH2CO}-Y[NMeA]NP[Dap](X11)L[Hyp]W[Dab](X11)[Trp(1-CH2COOH)][NMeNle][NMeNle]LCG-NH2; thioether N-14) |
| 8.68 | CCCC[C@H]1C(=O)N(C)[C@@H](CCCC)C(=O)N[C@@H](CC(C)C)C(=O)N[C@H](C(=O)NCC(N)=O)CSCC(=O)N[C@@H](Cc2ccc(O)cc2)C(=O)N(C)[C@@H](C)C(=O)N[C@@H](CC(N)=O)C(=O)N2CCC[C@H]2C(=O)N[C@@H](CNC(=S)Nc2ccc(C(F)(F)F)cc2)C(=O)N[C@@H](CC(C)C)C(=O)N2C[C@H](O)C[C@H]2C(=O)N[C@@H](Cc2c[nH]c3ccccc23)C(=O)N[C@@H](CCNC(=S)Nc2ccc(C(F)(F)F)cc2)C(=O)N[C@@H](Cc2cn(CC(=O)O)c3ccccc23)C(=O)N1C [Example 1035] ({CH2CO}-Y[NMeA]NP[Dap](X44)L[Hyp]W[Dab](X44)[Trp(1-CH2COOH)][NMeNle][NMeNle]LCG-NH2; thioether N-14) |
| 8.59 | CCCC[C@H]1C(=O)N(C)[C@@H](CCCC)C(=O)N[C@@H](CC(C)C)C(=O)N[C@H](C(=O)NCC(N)=O)CSCC(=O)N[C@@H](Cc2ccc(O)cc2)C(=O)N(C)[C@@H](C)C(=O)N[C@@H](CC(N)=O)C(=O)N2CCC[C@H]2C(=O)N[C@@H](CNC(=S)Nc2ccc(F)cc2Cl)C(=O)N[C@@H](CC(C)C)C(=O)N2C[C@H](O)C[C@H]2C(=O)N[C@@H](Cc2c[nH]c3ccccc23)C(=O)N[C@@H](CCN)C(=O)N[C@@H](Cc2cn(CC(=O)O)c3ccccc23)C(=O)N1C [Example 1030] ({CH2CO}-Y[NMeA]NP[Dap](X9)L[Hyp]W[Dab][Trp(1-CH2COOH)][NMeNle][NMeNle]LCG-NH2; thioether N-14) |

| Compound | pIC50 |
| --- | --- |
| CCCC[C@H]1C(=O)N(C)[C@@H](CCCC)C(=O)N[C@@H](CC(C)C)C(=O)N[C@H](C(=O)NCC(N)=O)CSCC(=O)N[C@@H](Cc2ccc(O)cc2)C(=O)N(C)[C@@H](C)C(=O)N[C@@H](CC(N)=O)C(=O)N2CCC[C@H]2C(=O)N[C@@H](CNC(=O)c2c3ccccc3cc3ccccc23)C(=O)N[C@@H](CC(C)C)C(=O)N2C[C@H](O)C[C@H]2C(=O)N[C@@H](Cc2c[nH]c3ccccc23)C(=O)N[C@@H](CCN)C(=O)N[C@@H](Cc2cn(CC(=O)O)c3ccccc23)C(=O)N1C [Example 2015] ({CH2CO}-Y[NMeA]NP[Dap](X34)L[Hyp]W[Dab][Trp(1-CH2COOH)][NMeNle][NMeNle]LCG-NH2; thioether N-14) | 8.49 |
